Laboratory results taken from patent publication US5134124A, “Use of a statin derivative in the treatment of eye complaints” (Sanofi, priority 1989, dated 1992).

Tests used:
[1] = test system: intraocular pressure in rabbits; test: Effect on the intraocular pressure in rabbits after increase by intravenous injection of a 5% glucose solution; assay type: in vivo; settings: eye lotion, pressure increased by intravenous injection of a 5% glucose solution
human plasma renin = target: T1, human plasma renin (Homo sapiens, UniProt P00797); test: Inhibition of human plasma renin activity at pH 7.4; assay type: biochemical; settings: method of EP 211 744, read-out: 50% inhibitory concentration (IC50), inhibition of human plasma renin activity
T1 construct: from tissue; host or cells: human plasma
T1 sequence (P00797 67-406): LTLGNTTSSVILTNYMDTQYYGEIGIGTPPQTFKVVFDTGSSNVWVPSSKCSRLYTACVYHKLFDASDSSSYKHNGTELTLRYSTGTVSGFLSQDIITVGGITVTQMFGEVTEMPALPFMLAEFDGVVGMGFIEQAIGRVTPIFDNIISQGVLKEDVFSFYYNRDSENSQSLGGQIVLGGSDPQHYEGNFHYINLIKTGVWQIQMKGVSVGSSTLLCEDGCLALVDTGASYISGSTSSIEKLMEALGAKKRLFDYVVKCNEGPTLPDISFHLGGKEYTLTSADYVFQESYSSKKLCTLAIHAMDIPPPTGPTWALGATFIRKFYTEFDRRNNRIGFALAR
Protocol: The inhibition of human plasma renin activity at pH 7.4 was measured for this compound (I) according to the method described in patent application EP 211 744.

CCC(C)C(NC(=O)CC(O)C(CC1CCCCC1)NC(=O)C(Cc1cnc[nH]1)NC(=O)C(Cc1ccccc1)NC(=O)CCc1cccnc1)C(=O)NC(O)C(C)CO (centres unmarked) [compound (I), N-(3-pyridylpropionyl)phenylalanylhistidyl(cyclohexyl)statyl-N-(1,3-dihydroxy-2-methylpropyl)isoleucinamide]
effect on the intraocular pressure [1]: enables the intraocular pressure to return rapidly to its normal value | IC50 (human plasma renin): 1 pM
